Read-outs that look alike come from different tables or passages of the source.
Legend:
human FABP1 (hFABP1) = biological target: T1, human FABP1 (hFABP1) (Homo sapiens, UniProt P07148); assay: DAUDA displacement assay for hFABP1 binding; settings: for Fres (% Fluorescence Remaining): residual DAUDA-FABP1 fluorescence at saturating ligand (Min of eq. 7); for Maximum decrease of DAUDA-FABP1 fluorescence at saturation: 0.3 μM FABP1, 0.5 μM DAUDA
T1 sequence (P07148 1-127): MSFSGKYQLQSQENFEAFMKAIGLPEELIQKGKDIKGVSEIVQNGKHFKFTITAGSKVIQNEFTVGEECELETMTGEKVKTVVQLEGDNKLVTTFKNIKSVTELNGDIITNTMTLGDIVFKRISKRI

CYP2C9 = CYP2C9 (Homo sapiens, UniProt P11712); assay type: in vitro ADME
FABP2 = settings: ref Patil et al., 2014; cited from earlier work

Sequence of CYP2C9 (P11712 whole entry): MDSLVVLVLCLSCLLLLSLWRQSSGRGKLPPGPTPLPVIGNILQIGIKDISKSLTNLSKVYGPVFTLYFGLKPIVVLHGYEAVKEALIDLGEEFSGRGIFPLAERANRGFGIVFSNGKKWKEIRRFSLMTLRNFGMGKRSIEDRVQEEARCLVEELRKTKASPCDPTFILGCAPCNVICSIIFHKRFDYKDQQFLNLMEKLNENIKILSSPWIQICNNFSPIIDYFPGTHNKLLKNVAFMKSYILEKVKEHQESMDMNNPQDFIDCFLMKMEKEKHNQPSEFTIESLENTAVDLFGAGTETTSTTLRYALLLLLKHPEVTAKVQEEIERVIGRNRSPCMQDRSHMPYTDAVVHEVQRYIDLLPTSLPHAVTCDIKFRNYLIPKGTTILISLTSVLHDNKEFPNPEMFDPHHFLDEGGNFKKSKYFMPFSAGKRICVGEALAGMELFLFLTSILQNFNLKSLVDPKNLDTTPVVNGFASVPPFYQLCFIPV

SMILES | EC50 (human FABP1 (hFABP1)) | Fres (% Fluorescence Remaining) (human FABP1 (hFABP1)) | also measured
CCCCC/C=C\C/C=C\C/C=C\C/C=C\CCCC(=O)O [Arachidonic Acid, arachidonic acid] | 0.42 ± 0.11 µM | 2.2 ± 3.6% | –
O=C(O)Cc1ccccc1Nc1c(Cl)cccc1Cl [Diclofenac, diclofenac] | – | 15 ± 3.0% | Maximum decrease of DAUDA-FABP1 fluorescence at saturation (human FABP1 (hFABP1)): > 82%; Maximum decrease of DAUDA-FABP1 fluorescence at saturation (human FABP1 (hFABP1); listed as diclofenac): ~85%; Km at 10 min (CYP2C9; CYP2C9 Supersomes (recombinant CYP2C9) with 20 μM hFABP1, pH 7.4, Km,apparent for 4'-OH-diclofenac formation, +FABP1, nominal diclofenac concentrations, 20 μM hFABP1, 1 nM CYP2C9 Supersomes): 5.8 ± 1.5 µM; Km at 10 min (CYP2C9; CYP2C9 Supersomes (recombinant CYP2C9), without hFABP1, pH 7.4, Km,apparent for 4'-OH-diclofenac formation, −FABP1, nominal diclofenac concentrations, absence of FABP1, 1 nM CYP2C9 Supersomes): 1.4 ± 0.2 µM
Cc1ccc(C)c(OCCCC(C)(C)C(=O)O)c1 [Gemfibrozil, gemfibrozil] | 5.6 ± 1.7 µM | 18 ± 2.8% | Maximum decrease of DAUDA-FABP1 fluorescence at saturation (human FABP1 (hFABP1)): > 82%
CC(C)Cc1ccc(C(C)C(=O)O)cc1 (centres unmarked) [Ibuprofen, ibuprofen] | – | 28 ± 4.9% | –
O=C(c1ccccc1)c1ccc2n1CCC2C(=O)O (centres unmarked) [Ketorolac, ketorolac] | – | – | Displacement of fluorescent probe ANS from FABP2 (FABP2): did not displace
CCc1ccc(CCOc2ccc(CC3SC(=O)NC3=O)cc2)nc1 (centres unmarked) [Pioglitazone, pioglitazone] | – | 5.2 ± 2.4% | Maximum decrease of DAUDA-FABP1 fluorescence at saturation (human FABP1 (hFABP1)): > 82%
C[C@@H](C(=O)O)c1ccc(-c2ccccc2)c(F)c1 [R-Flurbiprofen, (R)-flurbiprofen] | – | 40 ± 1.6% | –
C[C@H](C(=O)O)c1ccc(-c2ccccc2)c(F)c1 [S-Flurbiprofen, (S)-flurbiprofen] | – | 48 ± 1.1% | –
Nc1ccc(S(=O)(=O)Nc2ccnn2-c2ccccc2)cc1 [Sulfaphenazole, sulfaphenazole] | > 40 µM | – | –
CCCCNC(=O)NS(=O)(=O)c1ccc(C)cc1 [Tolbutamide, tolbutamide] | > 40 µM | – | –
CNCCC(Oc1ccc(C(F)(F)F)cc1)c1ccccc1 (centres unmarked) [fluoxetine] | – | – | Decrease of DAUDA fluorescence in initial screen (human FABP1 (hFABP1); drug at 30 μM, 0.3 μM FABP1 prebound with 0.5 μM DAUDA): All of the drugs tested except fluoxetine decreased DAUDA fluorescence
CC(C(=O)O)c1ccc(-c2ccccc2)c(F)c1 (centres unmarked) [flurbiprofen] | – | – | Kd (human FABP1 (hFABP1)): 2 to 10 µM
